The source of these data is ChEMBL document CHEMBL2429725, “New chemotypes for wALADin1-like inhibitors of delta-aminolevulinic acid dehydratase from Wolbachia endobacteria” (Bioorg Med Chem Lett, 2013).

Active and inactive are the calls of the source. The rule behind the calls is not given here. A value given as a limit tells only on which side of the number the result lay.

Assay [1] has as its target T1, Delta-aminolevulinic acid dehydratase (Homo sapiens) (UniProt P13716).
T1 sequence (whole entry): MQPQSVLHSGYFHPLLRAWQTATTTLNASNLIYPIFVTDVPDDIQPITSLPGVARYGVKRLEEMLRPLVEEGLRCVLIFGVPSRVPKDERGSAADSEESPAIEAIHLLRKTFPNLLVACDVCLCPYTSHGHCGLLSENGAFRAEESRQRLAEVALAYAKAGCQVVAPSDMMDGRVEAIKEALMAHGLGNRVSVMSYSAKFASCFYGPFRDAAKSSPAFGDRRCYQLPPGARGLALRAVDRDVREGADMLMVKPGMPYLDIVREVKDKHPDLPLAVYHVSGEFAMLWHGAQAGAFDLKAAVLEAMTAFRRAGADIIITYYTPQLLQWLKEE
Description: (§1) Inhibition of human ALADH after 20 mins.

For assay [2], the system named is Wolbachia. Kind of assay: (§2) Inhibition of recombinant Wolbachia endobacteria ALADH using 5-ALA as substrate after 20 mins.
Assay [3] addresses T2, Delta-aminolevulinic acid dehydratase (Homo sapiens, UniProt P13716).
T2 sequence (P13716 whole entry): T1 sequence (whole entry)
The description is as §1.

The nature of assay [4]: as §2.
In assay [5] the test system is Wolbachia. Kind of assay: Binding affinity to recombinant Wolbachia endobacteria assessed as change in melting temperature at 6.25 uM by thermal shift assay.
Assay [6] relates to Wolbachia. Description: Binding affinity to recombinant Wolbachia endobacteria assessed as change in melting temperature at 100 uM by thermal shift assay.
Assay [7] relates to Wolbachia. Description: Binding affinity to recombinant Wolbachia endobacteria assessed as change in melting temperature at 12.5 uM by thermal shift assay.
Assay [8] relates to Wolbachia. Kind of assay: Binding affinity to recombinant Wolbachia endobacteria assessed as change in melting temperature at 25 uM by thermal shift assay.
In assay [9] the test system is Wolbachia. Kind of assay: Non-competitive inhibition of recombinant Wolbachia endobacteria ALADH using 5-ALA as substrate.
The subject of assay [10] is Wolbachia. Kind of assay: Binding affinity to recombinant Wolbachia endobacteria assessed as change in melting temperature at 1.6 uM by thermal shift assay.
The test system of assay [11] is Wolbachia. Description: Inhibition of recombinant Wolbachia endobacteria ALADH using 5-ALA as substrate after 20 mins relative to control.
Assay [12] has as its system Wolbachia. Kind of assay: Non-competitive inhibition of recombinant Wolbachia endobacteria ALADH using 5-ALA as substrate in presence of Mg2+.
The test system of assay [13] is Wolbachia. Description: Binding affinity to recombinant Wolbachia endobacteria assessed as change in melting temperature at 3.1 uM by thermal shift assay.

Turning to `CCn1c(CSc2nnc(-c3cccs3)n2Cc2ccccc2)nc2cc(C(=O)O)ccc21`, the inhibition result in assay [1] and in [2] was “inactive” throughout.

As for `O=C(O)c1ccc2c(c1)n(Cc1ncccn1)c(=O)n2Cc1ccc(F)cc1`, in [1], the inhibition (commonly the percentage by which the read-out fell short of the control) was > 25%. In addition, the IC50 (usually the concentration needed to halve the response being measured) in [3] (read-out: IC50) was 119 µM; in [4] (read-out: IC50), > 1000 µM.

As for `CC(C)(C)C(=O)N1CCc2nc3ccccc3c(C(=O)O)c2C1`, the IC50 result in assay [4] is “Not Active”.

`CCn1c(CSc2ccc(NC(C)=O)cc2)nc2cc(C(=O)O)ccc21`: the inhibition entry in assay [1] and in assay [2] was “inactive” each time.

Take `O=C(O)CCNC(=O)C(Cc1ccccc1)NC(=O)c1cccs1` (stereo not given): the inhibition result in assay [1] and in assay [2] was “inactive” each time.

With `O=C(O)c1ccc2c(c1)n(CCN1CCCC1)c(=O)n2Cc1ccc(F)cc1`, in assay [1], the inhibition was > 25%. Further, the results for the IC50 in assay [3] (read-out: IC50) and in [4] (read-out: IC50) were > 1000 µM and 340 µM, respectively.

`O=C(O)c1c2c(nc3ccccc13)CCN(C(=O)c1cccc(C(F)(F)F)c1)C2`: the ΔTm – broadly, the change in melting temperature against a reference sample – stood at 1.9 °C in assay [5]; 5.5 °C in assay [6]; 2.8 °C in [7]; 3 °C in assay [8]; 0.7 °C in assay [10]; 1.2 °C in [13]. Besides, the IC50 result was “Not Active” in assay [3] and 8.1 µM in assay [4] (read-out: IC50). Besides, the inhibition result in assay [9] and in assay [12] was “Active” throughout. For the same compound, the inhibition in assay [11] was > 30%.

For `O=C(O)c1c2c(nc3ccccc13)CCN(CC(O)c1ccccc1)C2` (stereo not given), the IC50 result in [4] was “Not Active”.

`O=C(O)c1c2c(nc3ccccc13)CCN(S(=O)(=O)c1ccccc1)C2`: in assay [4], the IC50 entry was “Not Active”.

On to `O=C(O)c1ccc2c(c1)n(CC1CCNC1)c(=O)n2Cc1ccc(F)cc1` (stereo not given), for which the inhibition result in assay [1] and in assay [2] was “inactive” throughout.

As to `COc1ccc(S(=O)(=O)N2CCc3nc4ccccc4c(C(=O)O)c3C2)cc1`, in [4], the IC50 entry is “Not Active”.

Regarding `Cc1ccsc1C(=O)NCCc1ccc(C(=O)O)cc1`, the inhibition result in [1] and in assay [2] was “inactive” throughout.

On to `CN1CCc2nc3ccccc3c(C(=O)O)c2C1`, for which, in assay [4], the IC50 result is on record as “Not Active”.

As for `O=C(O)c1c2c(nc3ccccc13)CCNC2`, the IC50 result in assay [4] is reported as “Not Active”.

On to `O=C(c1cccc(C(F)(F)F)c1)N1CCc2nc3ncccc3cc2C1`, for which, in [4], the IC50 result is “Not Active”.

Turning to `O=C(O)c1ccc2c(c1)nc(CCNC(=O)c1cccs1)n2Cc1cccc(C(F)(F)F)c1`, the IC50 in assay [3] (read-out: IC50) worked out at 740 µM; in assay [4] (read-out: IC50), 11.1 µM.

For `O=C(N[C@@H](Cc1ccccc1)C(=O)O)c1cccs1`, the inhibition entry in assay [1] and in assay [2] was “inactive” in each case.

For the compound `O=C(O)c1cc(-c2ccc(Br)cc2)cs1`, the IC50 worked out at 99.7 µM in assay [3] (read-out: IC50) and 299 µM in [4] (read-out: IC50). Further, in [11], the inhibition was > 30%.

On to `O=C(O)c1cc(-c2ccc(Cl)cc2)cs1`, for which the IC50 worked out at 85.3 µM in assay [3] (read-out: IC50) and 521 µM in assay [4] (read-out: IC50). The inhibition in assay [11] is > 30%.

As to `O=C(O)c1c2c(nc3ccccc13)CCN(CC(O)COc1ccccc1)C2` (stereo not given), the IC50 result in assay [4] was “Not Active”.

On to `CC(NC(=O)Cc1ccccc1C(=O)O)C1Nc2ccccc2N1` (stereo not given), for which the inhibition entry in assay [1] and in [2] was “inactive” throughout.

For the compound `Cn1c(CCNC(=O)c2cccs2)nc2cc([N+](=O)[O-])ccc21`, the inhibition result in assay [1] and in assay [2] was “inactive” throughout.

Take `O=C(O)c1c2c(nc3ccccc13)CCN(Cc1ccccc1)C2`: the IC50 result in assay [4] is reported as “Not Active”.
